Reference: patent US11267825B2 (AICURIS GMBH & CO. KG, priority 2017, dated 2022)
Where two headings read alike, the source gives them in different places.

Assays:
HBV = assay: Determination of HBV DNA from the supernatants of HepAD38 cells (anti-HBV activity); assay type: cell-based, hepatitis B virus; settings: Hepatitis B virus, read-out: Cell Activity (EC50)
Method in brief: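 HepAD38 cells (60,000/well) were treated with half-log compound dilutions in tetracycline-free medium to induce HBV production. On day 6, HBV DNA was purified from filtered supernatant and quantified by real-time PCR against plasmid standards. EC50 values came from non-linear regression of relative copy numbers, typically from three experiments in triplicate.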

HBV core protein = HBV core protein (UniProt P03146); assay type: biochemical; settings: read-out: Assembly Activity (IC50); BODIPY-FL labelled core protein, assembly started with NaCl, read after 6 min
Method in brief: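 Fluorescence-quenching assembly assay using E. coli-expressed core protein 1–149 plus Cys150, labelled with BODIPY-FL maleimide, at 1.0–2.0 μM in 50 mM HEPES pH 7.5, 0.5% DMSO. Assembly started with NaCl to […]; fluorescence (ex 477/em 525 nm) read after 6 min. EC50 by non-linear regression, 8-point 0.5-log dilutions.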

[1] = 144 h, HBV DNA in HepAD38 supernatant at day 6

HBV core protein, sequence (P03146 whole entry, looked up): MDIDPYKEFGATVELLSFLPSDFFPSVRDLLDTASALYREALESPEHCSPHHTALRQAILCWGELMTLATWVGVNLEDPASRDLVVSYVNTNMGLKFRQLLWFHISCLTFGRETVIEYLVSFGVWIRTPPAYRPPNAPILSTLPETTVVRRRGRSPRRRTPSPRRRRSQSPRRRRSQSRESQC

Structure (SMILES) | EC50 (HBV; [1]) | IC50 (HBV core protein) | EC50 (HBV; HePAD38, 144 h)
Nc1nc2c(s1)CN(C(=O)c1cc3cccc(OC(F)F)c3[nH]1)CC2 [Example 173, 5-(7-(difluoromethoxy)-1H-indole-2-carbonyl)-4H,5H,6H,7H-[1,3]thiazolo[5,4-c]pyridin-2-amine] | 1 to 10 µM | < 5 µM | 
CC(C)(C)Nc1nc2c(s1)CN(C(=O)c1cc3ccccc3[nH]1)CC2 [Example 71, N-tert-butyl-5-(1H-indole-2-carbonyl)-4H,5H,6H,7H-[1,3]thiazolo[5,4-c]pyridin-2-amine] | < 1 µM | < 5 µM | 
O=C(c1cc2ccccc2[nH]1)N1CCc2nc(CNC3CCOC3)sc2C1 (centres unmarked) [Example 40, N-{[5-(1H-indole-2-carbonyl)-4H,5H,6H,7H-[1,3]thiazolo[5,4-c]pyridin-2-yl]methyl}oxolan-3-amine] | 1 to 10 µM | 5 to 10 µM | 
O=C(c1cc2ccccc2[nH]1)N1CCc2nc(NCC3(CO)CCC3)sc2C1 [Example 27, [1-({[5-(1H-indole-2-carbonyl)-4H,5H,6H,7H-[1,3]thiazolo[5,4-c]pyridin-2-yl]amino}methyl)cyclobutyl]methanol] | < 1 µM | < 5 µM | 
CC(C)OC(=O)[C@H](C)NP(=O)(OCCNc1nc2c(s1)CN(C(=O)c1cc3c(F)cc(F)cc3[nH]1)CC2)Oc1ccccc1 (stereo partly drawn) [Example 100, Propan-2-yl (2S)-2-{[(2-{[5-(4,6-difluoro-1H-indole-2-carbonyl)-4H,5H,6H,7H-[1,3]thiazolo[5,4-c]pyridin-2-yl]amino}ethoxy)(phenoxy)phosphoryl]amino}propanoate] |  | < 100 µM | 1 to 10 µM
O=C(c1cc2ccccc2[nH]1)N1CCc2nc(NCC3(O)CC3)sc2C1 [Example 405, 1-({[5-(1H-indole-2-carbonyl)-4H,5H,6H,7H-[1,3]thiazolo[5,4-c]pyridin-2-yl]amino}methyl)cyclopropan-1-ol] | < 1 µM | < 5 µM | 
CC(C)(C)NC(=O)Nc1nc2c(s1)CN(C(=O)c1cc3ccccc3[nH]1)CC2 [Example 264, 3-tert-butyl-1-[5-(1H-indole-2-carbonyl)-4H,5H,6H,7H-[1,3]thiazolo[5,4-c]pyridin-2-yl]urea] | < 1 µM | 5 to 10 µM | 
Cc1cc(F)cc2[nH]c(C(=O)N3CCc4nc(NC(=O)C5CCOCC5)sc4C3)cc12 [Example 321, N-[5-(6-fluoro-4-methyl-1H-indole-2-carbonyl)-4H,5H,6H,7H-[1,3]thiazolo[5,4-c]pyridin-2-yl]oxane-4-carboxamide] | < 1 µM | < 5 µM | 
CC(O)c1cccc2[nH]c(C(=O)N3CCc4nc(NCC5(CO)CC5)sc4C3)cc12 (centres unmarked) [Example 250, 1-{2-[2-({[1-(hydroxymethyl)cyclopropyl]methyl}amino)-4H,5H,6H,7H-[1,3]thiazolo[5,4-c]pyridine-5-carbonyl]-1H-indol-4-yl}ethan-1-ol] | < 1 µM | < 100 µM | 
O=C(c1cc2c(F)cc(F)cc2[nH]1)N1CCc2nc(N[C@H]3CC[C@@H](O)CC3)sc2C1 [Example 344, (1s,4s)-4-{[5-(4,6-difluoro-1H-indole-2-carbonyl)-4H,5H,6H,7H-[1,3]thiazolo[5,4-c]pyridin-2-yl]amino}cyclohexan-1-ol] | < 1 µM | 5 to 10 µM | 
O=C(c1cc2ccccc2[nH]1)N1CCc2nc(N[C@H]3CC[C@@H](O)CC3)sc2C1 [Example 45, (1s,4s)-4-{[5-(1H-indole-2-carbonyl)-4H,5H,6H,7H-[1,3]thiazolo[5,4-c]pyridin-2-yl]amino}cyclohexan-1-ol] | < 1 µM | < 5 µM | 
O=C(c1cc2c(F)c(F)ccc2[nH]1)N1CCc2nc(NCC3(CO)CC3)sc2C1 [Example 252, [1-({[5-(4,5-difluoro-1H-indole-2-carbonyl)-4H,5H,6H,7H-[1,3]thiazolo[5,4-c]pyridin-2-yl]amino}methyl)cyclopropyl]methanol] | < 1 µM | < 5 µM | 
Nc1nc2c(s1)CN(C(=O)c1cc3c(CO)cccc3[nH]1)CC2 [Example 9, (2-{2-amino-4H,5H,6H,7H-[1,3]thiazolo[5,4-c]pyridine-5-carbonyl}-1H-indol-4-yl)methanol] | 1 to 10 µM | 5 to 10 µM | 
O=C(c1cc2c(F)cc(F)cc2[nH]1)N1CCc2nc(OCCO)sc2C1 [Example 102, 2-{[5-(4,6-difluoro-1H-indole-2-carbonyl)-4H,5H,6H,7H-[1,3]thiazolo[5,4-c]pyridin-2-yl]oxy}ethan-1-ol] | 1 to 10 µM | 5 to 10 µM | 
N#Cc1cc(F)cc2[nH]c(C(=O)N3CCc4nc(NCC5CCOC5)sc4C3)cc12 (centres unmarked) [Example 103, 5-(4-cyano-6-fluoro-1H-indole-2-carbonyl)-N-[(oxolan-3-yl)methyl]-4H,5H,6H,7H-[1,3]thiazolo[5,4-c]pyridin-2-amine] | < 1 µM | 5 to 10 µM | 
Cc1nc2c(s1)CN(C(=O)c1cc3c(C)cccc3[nH]1)CC2 [Example 184, 4-methyl-2-{2-methyl-4H,5H,6H,7H-[1,3]thiazolo[5,4-c]pyridine-5-carbonyl}-1H-indole] | < 1 µM | < 5 µM | 

Structure (SMILES) | EC50 (HBV; [1]) | IC50 (HBV core protein) | EC50 (HBV; HePAD38, 144 h)
CC(Nc1nc2c(s1)CN(C(=O)c1cc3ccccc3[nH]1)CC2)C1CCOC1 (centres unmarked) [Example 247, 5-(1H-indole-2-carbonyl)-N-[1-(oxolan-3-yl)ethyl]-4H,5H,6H,7H-[1,3]thiazolo[5,4-c]pyridin-2-amine] | < 1 µM | < 5 µM | 
O=C(c1cc2ccccc2[nH]1)N1CCc2nc(N3CCOCC3)sc2C1 [Example 166, 2-[2-(morpholin-4-yl)-4H,5H,6H,7H-[1,3]thiazolo[5,4-c]pyridine-5-carbonyl]-1H-indole] | 1 to 10 µM | < 100 µM | 
CCc1cc(F)cc2[nH]c(C(=O)N3CCc4nc(NC[C@@H]5CCOC5)sc4C3)cc12 [Example 328, 5-(4-ethyl-6-fluoro-1H-indole-2-carbonyl)-N-{[(3S)-oxolan-3-yl]methyl}-4H,5H,6H,7H-[1,3]thiazolo[5,4-c]pyridin-2-amine] | < 1 µM | < 5 µM | 
O=C(c1cc2c(Cl)cc(F)cc2[nH]1)N1CCc2nc(NCC3CCOC3)sc2C1 (centres unmarked) [Example 101, 5-(4-chloro-6-fluoro-1H-indole-2-carbonyl)-N-[(oxolan-3-yl)methyl]-4H,5H,6H,7H-[1,3]thiazolo[5,4-c]pyridin-2-amine] | < 1 µM | < 5 µM | 
O=C(c1cc2c(F)ccc(F)c2[nH]1)N1CCc2nc(NCC3CCOC3)sc2C1 (centres unmarked) [Example 122, 5-(4,7-difluoro-1H-indole-2-carbonyl)-N-[(oxolan-3-yl)methyl]-4H,5H,6H,7H-[1,3]thiazolo[5,4-c]pyridin-2-amine] | < 1 µM | < 5 µM | 
Nc1nc2c(s1)CN(C(=O)c1[nH]c3ccccc3c1F)CC2 [Example 220, 5-(3-fluoro-1H-indole-2-carbonyl)-4H,5H,6H,7H-[1,3]thiazolo[5,4-c]pyridin-2-amine] | 1 to 10 µM | < 100 µM | 
CN1CCOC(CNc2nc3c(s2)CN(C(=O)c2cc4ccccc4[nH]2)CC3)C1 (centres unmarked) [Example 23, 5-(1H-indole-2-carbonyl)-N-[(4-methylmorpholin-2-yl)methyl]-4H,5H,6H,7H-[1,3]thiazolo[5,4-c]pyridin-2-amine] | 1 to 10 µM | 5 to 10 µM | 
Cc1cc(C)c2cc(C(=O)N3CCc4nc(N)sc4C3)[nH]c2c1 [Example 138, 5-(4,6-dimethyl-1H-indole-2-carbonyl)-4H,5H,6H,7H-[1,3]thiazolo[5,4-c]pyridin-2-amine] | 1 to 10 µM | < 5 µM | 
O=C(c1cc2ccccc2[nH]1)N1CCc2nc(NCC3CCCCO3)sc2C1 (centres unmarked) [Example 35, 5-(1H-indole-2-carbonyl)-N-[(oxan-2-yl)methyl]-4H,5H,6H,7H-[1,3]thiazolo[5,4-c]pyridin-2-amine] | < 1 µM | 5 to 10 µM | 
O=C(c1cc2c(F)cc(F)cc2[nH]1)N1CCc2nc(NC3(CO)CCC3)sc2C1 [Example 218, (1-{[5-(4,6-difluoro-1H-indole-2-carbonyl)-4H,5H,6H,7H-[1,3]thiazolo[5,4-c]pyridin-2-yl]amino}cyclobutyl)methanol] | < 1 µM | 5 to 10 µM | 
CCNCc1nc2c(s1)CN(C(=O)c1cc3ccccc3[nH]1)CC2 [Example 32, Ethyl({[5-(1H-indole-2-carbonyl)-4H,5H,6H,7H-[1,3]thiazolo[5,4-c]pyridin-2-yl]methyl})amine] | < 100 µM | < 100 µM | 
O=C(c1cc2c(Cl)cccc2[nH]1)N1CCc2nc(NCC3CCOC3)sc2C1 (centres unmarked) [Example 121, 5-(4-chloro-1H-indole-2-carbonyl)-N-[(oxolan-3-yl)methyl]-4H,5H,6H,7H-[1,3]thiazolo[5,4-c]pyridin-2-amine] | < 1 µM | < 5 µM | 
C[C@H](O)CNc1nc2c(s1)CN(C(=O)c1cc3ccccc3[nH]1)CC2 [Example 99, (2S)-1-{[5-(1H-indole-2-carbonyl)-4H,5H,6H,7H-[1,3]thiazolo[5,4-c]pyridin-2-yl]amino}propan-2-ol] | < 1 µM | < 5 µM | 
O=C(c1cc2ccccc2[nH]1)N1CCc2nc(N3CC4COCCN4C3)sc2C1 (centres unmarked) [Example 295, 2-(2-{hexahydro-1H-imidazo[4,3-c][1,4]oxazin-2-yl}-4H,5H,6H,7H-[1,3]thiazolo[5,4-c]pyridine-5-carbonyl)-1H-indole] | 1 to 10 µM | < 100 µM | 
CCc1cccc2[nH]c(C(=O)N3CCc4nc(N[C@H]5CC[C@@H](O)CC5)sc4C3)cc12 [Example 335, (1s,4s)-4-{[5-(4-ethyl-1H-indole-2-carbonyl)-4H,5H,6H,7H-[1,3]thiazolo[5,4-c]pyridin-2-yl]amino}cyclohexan-1-ol] | < 1 µM | < 5 µM | 
